# Values quoted from earlier work as cited in US20050158403A1, “Preparation of chinese herbal composite recipe used in horticulture” (priority 2004, published 2005).
# Tests used:
# Shigella = conditions: 1% matrine; in vitro
# E. Coli = conditions: 1% matrine; in vitro
# Proteus = conditions: 1% matrine; in vitro
# B-streptococcus = conditions: 1% matrine; in vitro
# Staphylococcus aureaus = conditions: 1% matrine; in vitro
compound,measurement,setting,value
O=C1CCC[C@@H]2[C@H]3CCCN4CCC[C@@H](CN12)[C@@H]34 [matrine],bacteria inhibition effects,Shigella,bacteria inhibition effects
same,bacteria inhibition effects,E. Coli,bacteria inhibition effects
same,bacteria inhibition effects,Proteus,bacteria inhibition effects
same,bacteria inhibition effects,B-streptococcus,bacteria inhibition effects
same,bacteria inhibition effects,Staphylococcus aureaus,bacteria inhibition effects
CC[C@@H]1[C@H]2CCCCN3[C@H]2[C@H](C[C@H]3[C@@H]2C[C@H](C)C(=O)O2)[C@@H]2[C@H]1OC(=O)[C@H]2C [tuberostemonine],effect on Ascarid,Ascarid,tuberostemonine can paralyze
discorea saponin,effect to bacteria,bacteria,but no effect to bacteria.
